Assay results as given in patent US20040171692A1, “Modulation of bone formation” (priority 2003, published 2004).
“Also recorded” adds a separate entry of the source.

Assays:
[1] = test system: bone forming cells (whole bone marrow cells, NASP cells, neonatal rat calvariae); test: CFU-f and NASP cell assays in combination with neonatal rat calvarial organ cultures (bone anabolic activity); assay type: cell-based; settings: for bone anabolic activity: useful = equivalent activity to that of PGE2, FIGS. 4-7
Description: The main reason for the lack of understanding of the cellular basis for the actions of bone anabolic drugs is that there exists, at present, no single in vitro assay which responds to these drugs in an appropriate manner. However, we have now developed a number of assays which, when used in combination with neonatal rat calvarial organ cultures, are able to predict bone anabolic agents.
Whole bone marrow cells (BMC's) were obtained from the tibias and femurs of 125 g male Wistar rats. The bones were removed under aseptic conditions and all soft adherent tissue removed. An end of each bone was removed, a hole made in the opposing end with an 18 gauge syringe needle, and the cells isolated centrifugally [Dobson K. R., et al., Calcif. tissue Int., 65:411-413 (1999)]. The cells were dispersed in 10 ml DMEM (containing 12% FCS, 1×10^−8 M dexamethasone and […] ascorbic acid) by repeated pipetting, and a single-cell suspension achieved by forcefully expelling the cells through a 20 gauge syringe needle. The cells were then used in the protocols described below.
To analyse the numbers of fibroblastic-colony forming units (CFU-f) in either whole BMC or high density non-adherent stromal precursor (NASP) cell cultures, 10^6 nucleated BMC, or the non-adherent cells from the high density NASP cell cultures, were plated out on 55 cm^2 petri dishes in DMEM containing; 12% FCS, 1×10^−8 M dexamethasone and 50 μg/ml ascorbic acid. In the case of the CFU-f analysis of whole BMC, the test agents were added once at the beginning of the culture period. In the case of NASP cell cultures, the test agents were added at the beginning of the NASP cell cultures themselves and the CFU-f assay only used to assess the number of CFU-f generated during the NASP cell culture. The medium was changed after 5 days and, thereafter, twice weekly. The cultures were maintained for 18 days, after which the cells were washed with PBS and fixed, by the addition of cold ethanol.
After fixation, the cultures were stained for alkaline phosphatase (APase) positive, calcium positive, collagen positive and total colonies as described by Scutt & Bertram (J. Bone and Mineral Res. 10:474-489, 1995). The cultures were then photographed using a digital camera and the APase positive, calcium positive, collagen positive and total colonies quantitated using Bioimage “Intelligent Quantifier” image analysis software [Dobson K., et al., A cost effective method for the automatic quantitative analysis of fibroblastic-colony forming units with osteoblastic potential. Calcif. Tissue Int. 65:166-172 (1999)].
BMC were cultured at a density of 1.5×10^6 cells per 2 cm^2 well in 0.75 ml DMEM containing 12% FCS, 10^−8 M dexamethasone and 50 μg/ml ascorbic acid. Solutions of the agents to be tested were added to the wells and then cultured for 4 days. The numbers of NASP cells present in the supernatant were then quantitated as described above for CFU-f cultures. To do this, the cultures were gently agitated and the supernatants, containing the non-adherent cells, were transferred to 55 cm^2 petri dishes. 10 ml of DMEM containing 12% FCS, 1×10^−8 M dexamethasone, 50 μg/ml ascorbic acid was added and the cultures maintained further as described above for CFU-f cultures.
One day old rat pups were killed and the calvariae (skull cases) dissected out. The calvariae were then cut along the sagittal suture to give two hemicalvariae per foetus. Each bone was cultured in 2 ml DMEM containing 1 mg/ml BSA, 50 μg/ml ascorbic acid, 60 μg/ml penicillin, and 50 μg/ml streptomycin and 1×10^−8 M dexamethasone in 35 mm tissue culture wells. After 24 h, the medium was replaced with fresh medium, any test agent added, and the tissue cultured for a further 48 h.
In this assay, each bone was pulsed with 10 μCi of [^3H]proline for 24 h at the end of the culture period. The bones were washed successively in trichloroacetic acid (TCA), acetone, and ether, and then dried. […]

whole bone marrow cells = test: Fibroblastic colony forming unit (CFU-f) cultures, colony numbers; assay type: cell-based, rat
Method: Whole bone marrow cells (BMC's) were obtained from the tibias and femurs of 125 g male Wistar rats. The bones were removed under aseptic conditions and all soft adherent tissue removed. An end of each bone was removed, a hole made in the opposing end with an 18 gauge syringe needle, and the cells isolated centrifugally [Dobson K. R., et al., Calcif. tissue Int., 65:411-413 (1999)]. The cells were dispersed in 10 ml DMEM (containing 12% FCS, 1×10^−8 M dexamethasone and […] ascorbic acid) by repeated pipetting, and a single-cell suspension achieved by forcefully expelling the cells through a 20 gauge syringe needle. The cells were then used in the protocols described below. To analyse the numbers of fibroblastic-colony forming units (CFU-f) in either whole BMC or high density non-adherent stromal precursor (NASP) cell cultures, 10^6 nucleated BMC, or the non-adherent cells from the high density NASP cell cultures, were plated out on 55 cm^2 petri dishes in DMEM containing; 12% FCS, 1×10^−8 M dexamethasone and 50 μg/ml ascorbic acid. In the case of the CFU-f analysis of whole BMC, the test agents were added once at the beginning of the culture period. In the case of NASP cell cultures, the test agents were added at the beginning of the NASP cell cultures themselves and the CFU-f assay only used to assess the number of CFU-f generated during the NASP cell culture. The medium was changed after 5 days and, thereafter, twice weekly. The cultures were maintained for 18 days, after which the cells were washed with PBS and fixed, by the addition of cold ethanol. […] The cultures were then photographed using a digital camera and the APase positive, calcium positive, collagen positive and total colonies quantitated using Bioimage “Intelligent Quantifier” image analysis software [Dobson K., et al., A cost effective method for the automatic quantitative analysis of fibroblastic-colony forming units with osteoblastic potential. […]

MB-1.8 cells = MB-1.8 cells exposed to TZD; cited from earlier work

SMILES | bone anabolic activity [1] | colony numbers (whole bone marrow cells) | further results
CCCCC/C=C\C/C=C\CCCCCCCC(=O)O [Linoleic acid, linoleic acid] | showed bone anabolic activity | – | –
CCCCCCCCCCCCCCCC(=O)OC [Methyl palmitate, methyl palmitate] | – | stimulation | –
CCCCC[C@H](O)/C=C/[C@H]1C=CC(=O)[C@@H]1CCCCCCC(=O)O [PGA1] | – | significant dose dependent increase | response in all three assays ([1]; alkaline phosphatase activity, calcium uptake and collagen synthesis, FIG. 1): positive response; bone anabolic activity relative to PGE2 ([1]; compared with PGE2, FIGS. 1-3): comparable with that produced by PGE2; also recorded: at least as good as that of PGE2
CCCCC[C@H](O)/C=C/[C@H]1C=CC(=O)[C@@H]1C/C=C\CCCC(=O)O [PGA2] | useful activity | – | –
CN(CCOc1ccc(CC2SC(=O)NC2=O)cc1)c1ccccn1 (centres unmarked) [TZD, 5-(4-{[N-methyl-N(2-pyridyl)-amino]ethoxy}benzyl)thiazolidine-2,4-dione] | – | – | alkaline phosphatase activity and expression of osteoblast-associated genes (MB-1.8 cells): decrease; expression of adipocyte fatty acid protein (MB-1.8 cells): enhancing
CC#CCC(C)[C@H](O)/C=C/[C@@H]1[C@H]2C/C(=C/CCCC(=O)O)C[C@H]2C[C@H]1O (some centres unmarked) [iloprost] | – | stimulation comparable with that of PGA1 | –
CCCCCCCC/C=C\CCCCCCCC(=O)O [oleic acid] | useful activity | – | –
c1cc2c(cc1[C@H]1OC[C@H]3[C@@H]1CO[C@@H]3c1ccc3c(c1)OCO3)OCO2 [sesamin] | useful activity | – | –
